Test results as given in US7659306B2, “Method of increasing gastric emptying” (The Board of Regents of the University of Texas System, priority 2004, dated 2010).
Entries after “also recorded” stand apart in the source; their conditions may differ. Like-named read-outs stand apart in the source and are kept apart here.

Experiments:
[1] = target: T1, dopamine 3 receptor (D3R) (Rattus norvegicus, UniProt P19020); details: adult male Sprague-Dawley rats, dopamine 1 mg/kg i.p. plus nafadotride 0.1 or 1 mg/kg i.p., 20 minutes after meal
Protocol: Gastric emptying was assessed in adult male Sprague-Dawley rats by the phenol red method. […] Control rats received vehicle (PBS).
A solution of 50 mg phenol red in 100 ml aqueous methylcellulose (1.5%) was used as a test meal. Methylcellulose (1.5 g, 400 centipoises) was dispersed in 100 ml of hot water (80° C.) under continuous shaking. The solution was allowed to cool to 35° C., and then phenol red was added. Intensity and duration (5 hr) of agitation were kept constant to obtain solutions of reproducible viscosity.
Conscious rats were fed the 0.05% phenol red methylcellulose solution and euthanized after 20 minutes. The stomach was clamped at the pylorus and cardiac ends before removal. The stomach and its contents were homogenized with 100 ml of 0.1N NaOH. A baseline control for each phenol red solution preparation was used by mixing 1.5 ml with 100 ml of 0.1N NaOH. The mixture was then kept for 1 hr at room temperature: 5 ml of the supernatant was added to 0.5 ml of trichloroacetic acid solution (20% w/v) to precipitate the proteins. […] The solutions were then read with a spectrophotometer at a wavelength of 560 nm.
Gastric emptying (G.E.) for each rat was calculated according to the following formula: (1−Absorbance of test sample)/(Absorbance of baseline control)×100%. Values were expressed as mean±SEM. […]

[2] = target: T1, dopamine 3 receptor (D3R); test: Electric field stimulation induced relaxation of pyloric strips in an organ bath; set-up: from tissue; host or cells: whole animal, adult male Sprague-Dawley rat (gastrointestinal tract); details: pyloric strips of adult male Sprague-Dawley rats, agonist 0.1-10 µM, dose dependent, hydrochloride
Protocol: The pyloric function was assessed by measuring the relaxation of pyloric strips in an organ bath in response to electric field stimulation in the presence of D3R agonist ranging from 0.1-10 µM (1 µM vs control, P<0.05; 10 μM vs control, P=0.001).
Pyloric function was assessed in an organ bath by measuring the relaxation of pyloric strips of adult male Sprague-Dawley rats in the presence of the dopamine 3 receptor agonist, PD 128907 hydrochloride.

[3] = target: T1, dopamine 3 receptor (D3R); test: Gastric emptying test (phenol red method) after i.p. D3R agonist; format: in vivo; set-up: from tissue; host or cells: whole animal, adult male Sprague-Dawley rat (gastrointestinal tract); details: adult male Sprague-Dawley rats, 1 mg/kg i.p., 20 minutes after phenol red methylcellulose meal, mean±SEM, vehicle 78±4.86%, hydrochloride
Protocol: Values were expressed as mean±SEM.
Adult male Sprague-Dawley rats (weighing 200-250 g) were deprived of food 18 hr prior to experiments but allowed free access to water. The animals were intraperitoneally injected with a dopamine 3 receptor agonist, PD 128907 hydrochloride, at 1 mg/kg or with physiological saline (control) before administration by oral tube of 1.5 ml of pre-warmed (35° C.) 0.05% phenol red solution.

T1 sequence (P19020 whole entry): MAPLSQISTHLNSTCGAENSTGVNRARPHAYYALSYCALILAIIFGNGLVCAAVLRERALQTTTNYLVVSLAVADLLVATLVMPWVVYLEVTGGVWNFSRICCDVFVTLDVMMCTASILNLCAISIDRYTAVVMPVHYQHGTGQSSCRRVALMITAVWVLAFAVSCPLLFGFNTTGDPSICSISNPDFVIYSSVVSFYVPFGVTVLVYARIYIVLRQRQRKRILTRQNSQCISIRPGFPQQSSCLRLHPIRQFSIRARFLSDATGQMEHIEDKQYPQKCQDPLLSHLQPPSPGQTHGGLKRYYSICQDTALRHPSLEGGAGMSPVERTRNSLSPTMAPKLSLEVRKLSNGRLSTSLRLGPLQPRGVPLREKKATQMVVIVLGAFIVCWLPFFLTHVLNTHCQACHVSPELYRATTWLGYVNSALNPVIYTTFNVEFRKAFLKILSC

reversal of the effect of dopamine on gastric emptying ([1]; listed as Nafadotride)	Structure (SMILES)	reversal of the effect of dopamine on gastric emptying [1]	electric field stimulation induced relaxation of pyloric strips [2]	gastric emptying [3] [%]	gastric emptying ([3]; listed as D3R agonist) [%]
partially reverse the effect of dopamine	CCCCN1CCCC1CNC(=O)c1cc(C#N)c2ccccc2c1OC (centres unmarked) [nafadotride]	partial reversal of the effect of dopamine on gastric emptying			
	CCCN1CCO[C@@H]2c3cc(O)ccc3OC[C@H]21.Cl [PD 128907 hydrochloride]		reduced electric field stimulation induced relaxation of pyloric strips; also recorded: significant reduction in electric field stimulation induced relaxation of pyloric strips	44	44±8.26
